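The concentration for 50% growth inhibition is given as GI50. TGI denotes the concentration required for complete inhibition of growth.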
Key:
Test in all cases: inhibition of tumour cell growth, NCI panel, 384-well format
786-0 renal = system: 786-0 renal
A498 renal = system: A498 renal
A549 NSCLC = system: A549 NSCLC
ACHN renal = system: ACHN renal
BT-549 breast = system: BT-549 breast
CAKI-1 renal = system: CAKI-1 renal
CCRF-CEM leukemia = system: CCRF-CEM leukemia
COLO 205 colon = system: COLO 205 colon
DU-145 prostate = system: DU-145 prostate
EKVX NSCLC = system: EKVX NSCLC
HCC-2998 colon = system: HCC-2998 colon
HCT-116 colon = system: HCT-116 colon
HCT-15 colon = system: HCT-15 colon
HL-60(TB) leukemia = system: HL-60(TB) leukemia
HOP-62 NSCLC = system: HOP-62 NSCLC
HOP-92 NSCLC = system: HOP-92 NSCLC
HS 578T breast = system: HS 578T breast
HT29 colon = system: HT29 colon
IGROV1 ovarian = system: IGROV1 ovarian
K-562 leukemia = system: K-562 leukemia
KM12 colon = system: KM12 colon
LOX IMVI melanoma = system: LOX IMVI melanoma
M14 melanoma = system: M14 melanoma
MALME-3M melanoma = system: MALME-3M melanoma
MCF7 breast = system: MCF7 breast
MDA-MB-231 breast = system: MDA-MB-231 breast
MDA-MB-435 melanoma = system: MDA-MB-435 melanoma
MDA-MB-468 breast = system: MDA-MB-468 breast
MOLT-4 leukemia = system: MOLT-4 leukemia
NCI-H226 lung = system: NCI-H226 lung
NCI-H23 lung = system: NCI-H23 lung
NCI-H322M lung = system: NCI-H322M lung
NCI-H460 NSCLC = system: NCI-H460 NSCLC
NCI-H522 lung = system: NCI-H522 lung
NCI/ADR-RES ovarian = system: NCI/ADR-RES ovarian
OVCAR-3 ovarian = system: OVCAR-3 ovarian
OVCAR-4 ovarian = system: OVCAR-4 ovarian
OVCAR-5 ovarian = system: OVCAR-5 ovarian
OVCAR-8 ovarian = system: OVCAR-8 ovarian
PC-3 prostate = system: PC-3 prostate
RXF 393 renal = system: RXF 393 renal
SF-268 CNS = system: SF-268 CNS
SF-295 CNS = system: SF-295 CNS
SF-539 CNS = system: SF-539 CNS
SK-MEL-2 melanoma = system: SK-MEL-2 melanoma
SK-MEL-28 melanoma = system: SK-MEL-28 melanoma
SK-MEL-5 melanoma = system: SK-MEL-5 melanoma
SK-OV-3 ovarian = system: SK-OV-3 ovarian
SN12C renal = system: SN12C renal
SNB-19 CNS = system: SNB-19 CNS
SNB-75 CNS = system: SNB-75 CNS
SR leukemia = system: SR leukemia
SW-620 colon = system: SW-620 colon
T-47D breast = system: T-47D breast
TK-10 renal = system: TK-10 renal
U251 glioblastoma = system: U251 glioblastoma
UACC-257 melanoma = system: UACC-257 melanoma
UACC-62 melanoma = system: UACC-62 melanoma
UO-31 renal = system: UO-31 renal

Cc1nc(N2CCC3(CC2)CO[C@@H](C)[C@H]3N)c(CO)nc1Sc1ccnc(N)c1Cl
GI50 ([…]-0 renal): 29.3 µM
TGI (786-0 renal): > 100 µM
GI50 (A498 renal): 1.08 µM
TGI (A498 renal): > 100 µM
GI50 (A549 NSCLC): 97 µM
TGI (A549 NSCLC): > 100 µM
GI50 (ACHN renal): 2.03 µM
TGI (ACHN renal): > 100 µM
GI50 (BT-549 breast): 17 µM
TGI (BT-549 breast): > 100 µM
GI50 (CAKI-1 renal): 0.414 µM
TGI (CAKI-1 renal): > 100 µM
GI50 (CCRF-CEM leukemia): 24.5 µM
TGI (CCRF-CEM leukemia): 60.2 µM
GI50 (COLO 205 colon): 41.8 µM
TGI (COLO 205 colon): > 100 µM
GI50 (DU-145 prostate): 97.5 µM
TGI (DU-145 prostate): > 100 µM
GI50 (EKVX NSCLC): 3.13 µM
TGI (EKVX NSCLC): 92.3 µM
GI50 (HCC-2998 colon): 35.5 µM
TGI (HCC-2998 colon): 95 µM
GI50 (HCT-116 colon): 37.1 µM
TGI (HCT-116 colon): > 100 µM
GI50 (HCT-15 colon): 69.3 µM
TGI (HCT-15 colon): > 100 µM
GI50 (HL-60(TB) leukemia): 15.8 µM
TGI (HL-60(TB) leukemia): 29.5 µM
GI50 (HOP-62 NSCLC): 54 µM
TGI (HOP-62 NSCLC): > 100 µM
GI50 (HOP-92 NSCLC): 0.115 µM
TGI (HOP-92 NSCLC): 12.4 µM
GI50 (HS 578T breast): 39.4 µM
TGI (HS 578T breast): > 100 µM
GI50 (HT29 colon): 27.5 µM
TGI (HT29 colon): 71.8 µM
GI50 (IGROV1 ovarian): 0.728 µM
TGI (IGROV1 ovarian): > 100 µM
GI50 (K-562 leukemia): 0.0619 µM
TGI (K-562 leukemia): 15.7 µM
GI50 (KM12 colon): 0.321 µM
TGI (KM12 colon): > 100 µM
GI50 (LOX IMVI melanoma): 35.5 µM
TGI (LOX IMVI melanoma): > 100 µM
GI50 (M14 melanoma): 21.3 µM
TGI (M14 melanoma): 42.6 µM
GI50 (MALME-3M melanoma): 24.2 µM
TGI (MALME-3M melanoma): 54.2 µM
GI50 (MCF7 breast): 35.1 µM
TGI (MCF7 breast): > 100 µM
GI50 (MDA-MB-231 breast): > 100 µM
TGI (MDA-MB-231 breast): > 100 µM
GI50 (MDA-MB-435 melanoma): > 100 µM
TGI (MDA-MB-435 melanoma): > 100 µM
GI50 (MDA-MB-468 breast): 0.145 µM
TGI (MDA-MB-468 breast): 1.39 µM
GI50 (MOLT-4 leukemia): 27 µM
TGI (MOLT-4 leukemia): > 100 µM
GI50 (NCI-H226 lung): 0.714 µM
TGI (NCI-H226 lung): > 100 µM
GI50 (NCI-H23 lung): 0.0838 µM
TGI (NCI-H23 lung): 20.6 µM
GI50 (NCI-H322M lung): 0.166 µM
TGI (NCI-H322M lung): > 100 µM
GI50 (NCI-H460 NSCLC): 41.8 µM
TGI (NCI-H460 NSCLC): > 100 µM
GI50 (NCI-H522 lung): 0.044 µM
TGI (NCI-H522 lung): 18.5 µM
GI50 (NCI/ADR-RES ovarian): 17.7 µM
TGI (NCI/ADR-RES ovarian): > 100 µM
GI50 (OVCAR-3 ovarian): 35.8 µM
TGI (OVCAR-3 ovarian): > 100 µM
GI50 (OVCAR-4 ovarian): 46.6 µM
TGI (OVCAR-4 ovarian): > 100 µM
GI50 (OVCAR-5 ovarian): 92.7 µM
TGI (OVCAR-5 ovarian): > 100 µM
GI50 (OVCAR-8 ovarian): 17.2 µM
TGI (OVCAR-8 ovarian): 50.5 µM
GI50 (PC-3 prostate): 54.4 µM
TGI (PC-3 prostate): > 100 µM
GI50 (RXF 393 renal): 12.5 µM
TGI (RXF 393 renal): 41.5 µM
GI50 (SF-268 CNS): 91.6 µM
TGI (SF-268 CNS): > 100 µM
GI50 (SF-295 CNS): 79.8 µM
TGI (SF-295 CNS): > 100 µM
GI50 (SF-539 CNS): 22.1 µM
TGI (SF-539 CNS): > 100 µM
GI50 (SK-MEL-2 melanoma): 34.7 µM
TGI (SK-MEL-2 melanoma): 78.1 µM
GI50 (SK-MEL-28 melanoma): 40.1 µM
TGI (SK-MEL-28 melanoma): > 100 µM
GI50 (SK-MEL-5 melanoma): 16 µM
TGI (SK-MEL-5 melanoma): 31.3 µM
GI50 (SK-OV-3 ovarian): 13 µM
TGI (SK-OV-3 ovarian): > 100 µM
GI50 (SN12C renal): 8.42 µM
TGI (SN12C renal): > 100 µM
GI50 (SNB-19 CNS): 42.1 µM
TGI (SNB-19 CNS): > 100 µM
GI50 (SNB-75 CNS): 13.4 µM
TGI (SNB-75 CNS): 94.4 µM
GI50 (SR leukemia): 9.08 µM
TGI (SR leukemia): 21.5 µM
GI50 (SW-620 colon): 54.6 µM
TGI (SW-620 colon): > 100 µM
GI50 (T-47D breast): 17.5 µM
TGI (T-47D breast): 82.2 µM
GI50 (TK-10 renal): 0.819 µM
TGI (TK-10 renal): > 100 µM
GI50 (U251 glioblastoma): 15.6 µM
TGI (U251 glioblastoma): > 100 µM
GI50 (UACC-257 melanoma): 19.3 µM
TGI (UACC-257 melanoma): 38.1 µM
GI50 (UACC-62 melanoma): 31.4 µM
TGI (UACC-62 melanoma): > 100 µM
GI50 (UO-31 renal): 11 µM
TGI (UO-31 renal): > 100 µM

Reference: PubChem BioAssay (NCI)
